Reference: publication PMC6537213, “Ellagic acid microspheres restrict the growth of Babesia and Theileria in vitro and Babesia microti in vivo” (Parasites & Vectors, 2019)
Values joined by “and” are separate entries in the source; they are usually repeats but may differ in a detail not shown here. Equal entries are not always repeated.

Experiments:
B. caballi (USDA strain) = experiment: in vitro growth inhibition assay (SYBR Green I fluorescence), single drug and 1:1 combination; type: cell-based, Babesia caballi; conditions: B. caballi in vitro culture, 4 days
Experimental: (§1) A microaerophilic stationary-phase culture system was used to maintain Babesia parasite cultures for a long time. Briefly, B. caballi (USDA strain) was grown using equine red blood cells (RBCs) in GIT medium supplemented with 40% equine serum. Theileria equi (USDA strain) was grown in equine RBCs in Medium 199 (M199; Sigma-Aldrich, Tokyo) supplemented with 40% equine serum, and hypoxanthine (MP Biomedicals, Santa Ana, CA, USA) at a final concentration of 13.6 μg/ml was used as a vital supplement. Babesia bovis (Texas strain) and B. bigemina (Argentina strain) were grown in bovine RBCs in M199 medium supplemented with 40% bovine serum. Meanwhile, B. divergens (Germany strain) was grown in bovine RBCs in medium RPMI 1640 (Sigma-Aldrich, Tokyo) supplemented with 40% bovine serum. All media included 60 U/ml penicillin G, 60 μg/ml streptomycin and 0.15 μg/ml amphotericin B (Sigma-Aldrich, St. Louis, MO, USA) to prevent bacterial contamination. The cultures were incubated at 37 °C in a humidified chamber with an atmosphere of 5% CO2, 5% O2 and 90% N2. Babesia microti (Munich strain) was recovered from − 80 °C stock, intraperitoneally injected in two 8-week old female BALB/c mice (Clea Japan, Tokyo, Japan), and the parasitemia was monitored every 2 days. The mice were euthanized using an anesthesia system containing isoflurane after parasitemia reached approximately 30%, and blood was collected by cardiac puncture to initiate the in vivo experiment. The animal experiment was conducted in accordance with the Regulations for Animal Experiments of Obihiro University of Agriculture and Veterinary Medicine, Japan (animal experiment accession number: 290168).
(§2) Assays were performed in accordance with the previously described protocol. Briefly, B. bovis, B. bigemina, B. divergens, B. caballi and T. equi cultures were harvested and adjusted to 1% parasitemia with fresh RBCs to start the inhibition assay. The assays were carried out using 96-well microtiter plates where only the 60 inner wells were used, while the peripheral wells were filled with sterile distillate water to reduce evaporation during incubation. In five 96-well plates, a volume of 2.5 µl each of B. bigemina- and B. bovis-iRBCs and 5 µl each of B. divergens-, B. caballi- and T. equi-iRBCs were added to each well in triplicate and mixed with a culture medium containing the drug concentrations to a total volume of 100 µl. Various concentrations of EA, β-CD EA, APSP EA, DA, CF and AQ were dissolved in a culture medium using two-fold dilution. Wells containing DMSO at a final concentration of 0.4% and iRBCs were used as a positive control, while wells with non-infected RBCs and culture medium were used as a negative control. Additionally, a drug combination assay was performed in parallel with the single drug assay at a constant ratio of 1:1, as described previously. […] The plates were incubated in a humidified incubator with 5% CO2, 5% O2 and 90% N2 for 4 days without changing the medium. On day 4, 100 µl of a lysis buffer containing 2 × SG1 was added to each well. The plates were wrapped with aluminum foil to avoid direct light exposure and incubated at room temperature. After 6 h, fluorescence values were measured using a fluorescence spectrophotometer (Fluoroskan Ascent; Thermo LabSystems, Oceanside, CA, USA) with excitation and emission wavelengths of 485 and 518 nm, respectively. The fluorescence data were subtracted from the negative control and used to calculate the IC50. […]

[1] = system: Theileria equi (USDA strain); experiment: as above; type: cell-based; conditions: T. equi in vitro culture, 4 days
Experimental: as §1
(§3) Assays were performed in accordance with the previously described protocol. Briefly, B. bovis, B. bigemina, B. divergens, B. caballi and T. equi cultures were harvested and adjusted to 1% parasitemia with fresh RBCs to start the inhibition assay. The assays were carried out using 96-well microtiter plates where only the 60 inner wells were used, while the peripheral wells were filled with sterile distillate water to reduce evaporation during incubation. In five 96-well plates, a volume of 2.5 µl each of B. bigemina- and B. bovis-iRBCs and 5 µl each of B. divergens-, B. caballi- and T. equi-iRBCs were added to each well in triplicate and mixed with a culture medium containing the drug concentrations to a total volume of 100 µl. Various concentrations of EA, β-CD EA, APSP EA, DA, CF and AQ were dissolved in a culture medium using two-fold dilution. Wells containing DMSO at a final concentration of 0.4% and iRBCs were used as a positive control, while wells with non-infected RBCs and culture medium were used as a negative control. Additionally, a drug combination assay was performed in parallel with the single drug assay at a constant ratio of 1:1, as described previously. […] The plates were incubated in a humidified incubator with 5% CO2, 5% O2 and 90% N2 for 4 days without changing the medium. On day 4, 100 µl of a lysis buffer containing 2 × SG1 was added to each well. The plates were wrapped with aluminum foil to avoid direct light exposure and incubated at room temperature. After 6 h, fluorescence values were measured using a fluorescence spectrophotometer (Fluoroskan Ascent; Thermo LabSystems, Oceanside, CA, USA) with excitation and emission wavelengths of 485 and 518 nm, respectively. The fluorescence data were subtracted from the negative control and used to calculate the IC50. To calculate the degree of association, the growth-inhibition values obtained were entered into CompuSyn software, based on the combination index (CI) values. […] The experiments were repeated three times.

[2] = system: Babesia bovis (Texas strain); experiment: as above; type: cell-based; conditions: B. bovis in vitro culture, 4 days
Experimental: as §1, §3

[3] = system: Madin-Darby bovine kidney (MDBK) cell line; experiment: cytotoxicity assay (CCK-8); type: cell-based; conditions: for EC50: MDBK cells, 24 h exposure, CCK-8; for inhibition of cell viability: 100 µM, separate assay
Experimental: (§4) The MDBK cell line was maintained in 75 cm^2 culture flasks with Minimum Essential Medium Eagle (MEM; Gibco, Grand Island, NY, USA), while Dulbecco’s Modified Eagle’s Medium (DMEM; […] Each medium was supplemented with 10% fetal bovine serum, 0.5% penicillin/streptomycin (Gibco), and an additional 1% glutamine. Every 3 to 4 days, the medium was changed, and the cells were incubated until approximately 80% confluent. The cells were free from mycoplasma contamination after being checked by staining with 4,6-diamidino-2-phenylindole dihydrochloride (DAPI; Sigma-Aldrich, St. Louis). The cell detachment from the culture flask was done using TrypLE^TM Express (Gibco) after washing two times with Dulbecco’s phosphate-buffered saline (DPBS). Subsequently, viable cells were counted using a Neubauer Improved C-Chip (NanoEnTek Inc., Seoul, Korea) after staining with 0.4% trypan blue solution. The drug-exposure viability assay was performed in accordance with the recommendation for the Cell Counting Kit-8 (CCK-8; Dojindo, Kumamoto, Japan). Briefly, in a 96-well plate, 100 µl of cells at a density of 5 × 10^4 cells/ml were seeded per well and allowed to attach to the plate for 24 h at 37 °C in a humidified incubator with 5% CO2. Ten microliters of drug diluted two-fold were added to each well to a final concentration of 0.781 to 800 µM in triplicate. Wells with only a culture medium were used as blanks, while wells containing cells and a medium with 0.5% DMSO were used as positive controls. Drug exposure lasted for 24 h. After 24 h, 10 µl of CCK-8 was added, and the plate was further incubated for 3 h. Absorbance was measured at 450 nm using a microplate reader.

[4] = system: mouse embryonic fibroblast (NIH/3T3) cell line; experiment: cytotoxicity assay (CCK-8); type: cell-based; conditions: for EC50: NIH/3T3 cells, 24 h exposure, CCK-8; for inhibition of cell viability: NIH/3T3, 100 µM, separate assay
Experimental: as §4

[5] = system: human foreskin fibroblast (HFF) cell line; experiment: cytotoxicity assay (CCK-8); type: cell-based; conditions: for EC50: HFF cells, 24 h exposure, CCK-8; for inhibition of cell viability: HFF, 100 µM, separate assay
Experimental: as §4

[6] = system: Babesia microti (Munich strain); experiment: in vivo growth inhibition and drug combination assays in B. microti-infected BALB/c mice; conditions: for peak parasitemia level: 5 days
Experimental: as §1
In vivo growth inhibition assays of EA, β-CD EA and APSP EA were performed in B. microti-infected BALB/c mice in accordance with the previous protocol in two separate trials. […] The mice in groups 2–8 were intraperitoneally (i.p.) injected with 0.5 ml of inoculum (1 × 10^7 B. microti-iRBCs). Group 1 was left uninfected and untreated as a negative control. When the average parasitemia in all mice reached 1%, drug treatment was initiated for 5 consecutive days. […] DA at a concentration of 25 mg/kg body weight (BW) was administrated i.p. to the third group as a reference drug control.

[7] = system: B. bigemina (Argentina strain); experiment: in vitro growth inhibition assay (SYBR Green I fluorescence), single drug and 1:1 combination; type: cell-based, Babesia bigemina; conditions: B. bigemina in vitro culture, 4 days
Experimental: as §1, §2

[8] = system: B. divergens (Germany strain); experiment: as above; type: cell-based, Babesia divergens; conditions: B. divergens in vitro culture, 4 days
Experimental: as §1, §2

B. microti = experiment: nested PCR detection of B. microti ss-rRNA gene in blood of treated mice; type: in vivo, Babesia microti; conditions: day 42
[9] = Babesia bovis, in Bos taurus, 96 h
[10] = EC50 NIH/3T3 / IC50 B. bigemina
[11] = EC50 NIH/3T3 / IC50 B. divergens

Compound | IC50 (B. caballi (USDA strain); Babesia caballi, 96 h) | IC50 ([1]; Theileria equi, 96 h) | IC50 [2, 9] | EC50 ([3]; Bos taurus, MDBK, 24 h) | Selective indices MDBK ([3]; EC50 MDBK / IC50 B. bigemina) | Selective indices MDBK ([3]; EC50 MDBK / IC50 B. caballi) | Selective indices MDBK ([3]; EC50 MDBK / IC50 B. divergens) | Selective indices NIH/3T3 [4, 10] | Selective indices NIH/3T3 ([4]; EC50 NIH/3T3 / IC50 B. caballi) | Selective indices NIH/3T3 [4, 11] | Selective indices NIH/3T3 ([4]; EC50 NIH/3T3 / IC50 T. equi) | EC50 ([4]; Mus musculus, NIH3T3) | Selective indices HFF ([5]; EC50 HFF / IC50 B. bigemina) | Selective indices HFF ([5]; EC50 HFF / IC50 B. caballi) | Selective indices HFF ([5]; EC50 HFF / IC50 B. divergens) | Selective indices HFF ([5]; EC50 HFF / IC50 T. equi) | EC50 ([5]; Homo sapiens) | IC50 ([7]; Babesia bigemina, 96 h) | IC50 ([8]; Babesia divergens, 96 h) | inhibition of cell viability ([3]; MDBK) | other results
CC(C)/N=c1\cc2n(-c3ccc(Cl)cc3)c3ccccc3nc-2cc1Nc1ccc(Cl)cc1 [CF, clofazimine] | 7950 ± 1800 nM | 2880 ± 900 nM | 8240 ± 1700 nM | 34 ± 3.4 µM | 6.1 | 4.4 | 2.5 | ˃ 17.5 | ˃ 12.6 | ˃ 7.2 | ˃ 34.7 | > 100 µM | ˃ 17.5 | ˃ 12.6 | ˃ 7.2 | ˃ 34.7 | > 100 µM | 5730 ± 1900 nM | 13800 ± 4300 nM | – | Selective indices MDBK ([3]; EC50 MDBK / IC50 B. bovis): 4.2; Selective indices NIH/3T3 ([4]; EC50 NIH/3T3 / IC50 B. bovis): ˃ 12.1; Selective indices HFF ([5]; EC50 HFF / IC50 B. bovis): ˃ 12.1; day p.i. from which parasitemia was undetectable by microscopic examination ([6]; second assay, 20 mg/kg CF): 16 day p.i.; peak parasitemia level ([6]; second assay, 20 mg/kg CF oral, DDW control 58.3%): 4.9%
CC(=O)NCC(=O)O.CC(=O)NCC(=O)O.N=C(N)c1ccc(N=NNc2ccc(C(=N)N)cc2)cc1 [DA, diminazene aceturate] | – | – | – | – | – | – | – | – | – | – | – | – | – | – | – | – | – | – | – | did not show any inhibition | IC50 (B. caballi (USDA strain)): 22 nM and 20 nM; parasite DNA in blood (nPCR) (B. microti; 25 mg/kg DA): not detected; IC50 [1]: 710 ± 50 nM; IC50 [2]: 350 ± 60 nM; EC50 [3]: > 100 µM; inhibition of cell viability [4]: did not show any inhibition; EC50 [4]: > 100 µM; EC50 [5]: > 100 µM; inhibition of cell viability [5]: did not show any inhibition; peak parasitemia level ([6]; first assay, 25 mg/kg DA i.p., peak on day 8, DDW control 57.7%): 5.2%; day p.i. from which parasitemia was undetectable by microscopic examination ([6]; second assay, 25 mg/kg DA): 13 day p.i.; peak parasitemia level ([6]; second assay, 25 mg/kg DA i.p., DDW control 58.3%): 3.9%; IC50 [7]: 680 ± 90 nM; IC50 [8]: 430 ± 50 nM
O=C1C(O)=C([C@H]2CC[C@H](c3ccc(Cl)cc3)CC2)C(=O)c2ccccc21 [AQ, atovaquone] | 102 ± 14.1 nM | 95 ± 65.5 nM | 39 ± 2 nM | > 100 µM | ˃ 12.7 | ˃ 30.4 | ˃ 18.5 | ˃ 12.7 | ˃ 30.4 | ˃ 18.5 | ˃ 13.4 | > 100 µM | ˃ 12.7 | ˃ 30.4 | ˃ 18.5 | ˃ 13.4 | > 100 µM | 701 ± 40 nM | 38 ± 2 nM | did not show any inhibition | parasite DNA in blood (nPCR) (B. microti; 20 mg/kg AQ): not detected; Selective indices MDBK ([3]; EC50 MDBK / IC50 T. equi): ˃ 13.4; inhibition of cell viability [4]: did not show any inhibition; inhibition of cell viability [5]: did not show any inhibition; day p.i. from which parasitemia was undetectable by microscopic examination ([6]; second assay, 20 mg/kg AQ): 15 day p.i.; peak parasitemia level ([6]; second assay, 20 mg/kg AQ oral, DDW control 58.3%): 4.3%
